The values that follow come from patent publication US20240150293A1, “SPIROCYCLOHEXANE DERIVATIVES, PHARMACEUTICAL COMPOSITIONS CONTAINING THEM AND THEIR USES AS ANTI-APOPTOTIC INHIBITORS” (LES LABORATOIRES SERVIER, priority 2021, published 2024).

The structures appear in SMILES notation. pIC50, pKi: −log10 of the molar value. Read-outs that look alike come from different tables or passages of the source.

The target of assay [1] is Cy5-labelled Mcl1 (amino acids 171-321) C286S protein (UniProtKB Q07820) (Homo sapiens (Human), UniProt Q07820, C286S). The assay can be described thus: Inhibition of Mcl-1 by the fluorescence quenching assay (Example A, Method B). The class given is binding. The gist of the method:
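Cy5-labelled Mcl1 171-321 C286S (1 nM) quenched by TQ5WS-labelled PUMA peptide (10, 20 or 400 nM); displacement raises fluorescence (Ex 620/Em 680 nm). Buffer 10 mM HEPES, 150 mM NaCl, 0.05% Tween 20, pH 7.4, 5% DMSO; 2 h at room temperature, 11-point curves, IC50 converted to Ki (cKi/eKi).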

For assay [2], the system named is H929 multiple myeloma tumor line. The experiment in a line: In vitro cytotoxicity, MTT assay (Example B, Method A). The class given is cell-based. To be noted: H929 cells, 48 hours exposure, read-out: C50. As for the experimental part:
The cytotoxicity studies were carried out on the H929 multiple myeloma tumor line.
The cells are distributed onto microplates and exposed to the test compounds for 48 hours. The cell viability is then quantified by a colorimetric assay, the Microculture Tetrazolium Assay (Carmichael et al, Cancer Res. 1987, 47, 939-942).
The results are expressed in C50 which means concentration corresponding to […] of effect/inhibition.
In general terms: Tetrazolium assays rely on reduction of a dye to a coloured formazan, in cell work by metabolically active cells.

Sequence of Cy5-labelled Mcl1 (amino acids 171-321) C286S protein (Q07820 171-321 C286S): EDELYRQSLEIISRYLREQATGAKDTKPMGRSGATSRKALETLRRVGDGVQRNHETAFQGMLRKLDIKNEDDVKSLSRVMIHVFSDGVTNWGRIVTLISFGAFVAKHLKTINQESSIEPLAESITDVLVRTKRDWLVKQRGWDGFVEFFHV

As to `CC[C@H]1CC[C@H](F)c2nccc(OC[C@H](C)C[C@H]3Cc4ccccc4[C@]34CC[C@@](Nc3cccc(Cl)c3)(C(=O)O)CC4)c21` [Example 696, (1r,2′S,4S)-4-(3-chloroanilino)-2′-[(2R)-3-{[(5S,8S)-5-ethyl-8-fluoro-5,6,7,8-tetrahydroquinolin-4-yl]oxy}-2-methylpropyl]-2′,3′-dihydrospiro[cyclohexane-1,1′-indene]-4-carboxylic acid], the pKi in assay [1] was 6.99. Also, in assay [2] (Homo sapiens, NCI-H929, 48 h), the pIC50 is 5.29.
Taken in the same sequence, the figures for `C[C@@H](COc1ccnc2c1[C@H](C)CCC2)C[C@@H]1Cc2cc(Cl)ccc2[C@]12CC[C@@](Nc1cccc(Cl)c1)(C(=O)O)CC2` [Example 779, (1r,2′R,4R)-5′-chloro-4-(3-chloroanilino)-2′-[(2R)-2-methyl-3-{[(5R)-5-methyl-5,6,7,8-tetrahydroquinolin-4-yl]oxy}propyl]-2′,3′-dihydrospiro[cyclohexane-1,1′-indene]-4-carboxylic acid] were 9.37 and 6.84.
Take `CC(O)c1ccc2c(c1)[C@]1(CC[C@@](Nc3cccc(Cl)c3)(C(=O)O)CC1)[C@@H](C[C@@H](C)COc1ccnc3c1[C@H](C)CC[C@H]3O)C2` (single isomer, unassigned) [Example 862]: in assay [1], the pKi was 9.95. In addition, in assay [2], the pIC50 was 7.13.
For the compound `C[C@@H](COc1ccnc2c1[C@H](C)CCC2)C[C@@H]1Cc2ccc(CO)cc2[C@]12CC[C@@](Nc1cccc(Cl)c1)(C(=O)O)CC2` [Example 869, (1r,2′R,4R)-4-(3-chloroanilino)-6′-(hydroxymethyl)-2′-[(2R)-2-methyl-3-{[(5R)-5-methyl-5,6,7,8-tetrahydroquinolin-4-yl]oxy}propyl]-2′,3′-dihydrospiro[cyclohexane-1,1′-indene]-4-carboxylic acid], the pKi in assay [1] is 9.42. In addition, the pIC50 in assay [2] (Homo sapiens, NCI-H929, 48 h) is 6.71.
Turning to `C[C@@H](COc1ccnc2c1[C@H](C)CCC2)C[C@H]1Cc2ccccc2[C@]12CC[C@@](Nc1ccc(F)c(Cl)c1)(C(=O)O)CC2` [Example 702, (1r,2′S,4S)-4-(3-chloro-4-fluoroanilino)-2′-[(2R)-2-methyl-3-{[(5R)-5-methyl-5,6,7,8-tetrahydroquinolin-4-yl]oxy}propyl]-2′,3′-dihydrospiro[cyclohexane-1,1′-indene]-4-carboxylic acid], the pKi in assay [1] is 9.71. In addition, in assay [2] (Homo sapiens, NCI-H929, 48 h), the pIC50 is 7.38.
Taken in the same sequence, the figures for `Cc1c(OC[C@H](C)C[C@H]2Cc3ccccc3[C@]23CC[C@@](Nc2cccc(Cl)c2)(C(=O)O)CC3)ccnc1CO` [Example 586, (1r,2′S,4S)-4-(3-chloroanilino)-2′-[(2R)-3-{[2-(hydroxymethyl)-3-methylpyridin-4-yl]oxy}-2-methylpropyl]-2′,3′-dihydrospiro[cyclohexane-1,1′-indene]-4-carboxylic acid] were 8.58 and 5.79.
Turning to `C[C@@H](COc1ccnc2c1[C@H](C)CCC2)C[C@H]1Cc2ccc(Oc3ccccc3)cc2[C@]12CC[C@@](Nc1cccc(Cl)c1)(C(=O)O)CC2` [Example 793, (1r,2′S,4S)-4-(3-chloroanilino)-2′-[(2R)-2-methyl-3-{[(5S)-5-methyl-5,6,7,8-tetrahydroquinolin-4-yl]oxy}propyl]-6′-phenoxy-2′,3′-dihydrospiro[cyclohexane-1,1′-indene]-4-carboxylic acid], in assay [1], the pKi was 7.75. In addition, the pIC50 in assay [2] (Homo sapiens, NCI-H929, 48 h) is 6.07.
On the same counts, the results for `C[C@@H](COc1ccnc2c1CCC[C@H]2O)C[C@H]1Cc2ccccc2[C@]12CC[C@@](Nc1cccc(Cl)c1)(C(=O)O)CC2` [Example 668, (1r,2′S,4S)-4-(3-chloroanilino)-2′-[(2R)-3-{[(8R)-8-hydroxy-5,6,7,8-tetrahydroquinolin-4-yl]oxy}-2-methylpropyl]-2′,3′-dihydrospiro[cyclohexane-1,1′-indene]-4-carboxylic acid] are 8.56 and 6.45.
Take `C[C@@H]1Cc2nccc(OC[C@H](C)C[C@H]3Cc4ccccc4[C@]34CC[C@@](Nc3cccc(Cl)c3)(C(=O)O)CC4)c2[C@H](C)C1` [Example 665, (1r,2′S,4S)-4-(3-chloroanilino)-2′-[(2R)-3-{[(5R,7S)-5,7-dimethyl-5,6,7,8-tetrahydroquinolin-4-yl]oxy}-2-methylpropyl]-2′,3′-dihydrospiro[cyclohexane-1,1′-indene]-4-carboxylic acid]: the pKi in assay [1] is 8.52. The pIC50 in assay [2] (Homo sapiens, NCI-H929, 48 h) is 6.56.
On the same counts, the results for `COCc1ccc2c(c1)[C@]1(CC[C@@](Nc3cccc(Cl)c3)(C(=O)O)CC1)[C@H](C[C@@H](C)COc1ccnc3c1[C@H](C)CCC3)C2` [Example 920, (1r,2′R,4R)-4-(3-chloroanilino)-6′-(methoxymethyl)-2′-[(2R)-2-methyl-3-{[(5R)-5-methyl-5,6,7,8-tetrahydroquinolin-4-yl]oxy}propyl]-2′,3′-dihydrospiro[cyclohexane-1,1′-indene]-4-carboxylic acid] are 8.41 and 6.98.
Turning to `C[C@@H](COc1ccnc2c1[C@@H](C)CCC2)C[C@H]1Cc2cc3c(cc2[C@]12CC[C@@](Nc1cccc(Cl)c1)(C(=O)O)CC2)OCO3` [Example 842, (1r,4S,6′S)-4-(3-chloroanilino)-6′-[(2R)-2-methyl-3-{[(5S)-5-methyl-5,6,7,8-tetrahydroquinolin-4-yl]oxy}propyl]-6′,7′-dihydro-2′H-spiro[cyclohexane-1,5′-indeno[5,6-d][1,3]dioxole]-4-carboxylic acid], the pKi in assay [1] was 8.81. Moreover, in assay [2] (Homo sapiens, NCI-H929, 48 h), the pIC50 was 7.09.
With `C[C@@H]1CCCc2nccc(OCC(CC3=Cc4ccccc4[C@]34CC[C@@](Nc3cccc(Cl)c3)(C(=O)O)CC4)C(F)F)c21` (single isomer, unassigned) [Example 516], the pKi in assay [1] is 7.55. Moreover, the pIC50 in assay [2] was 5.41.
For `Cc1ccc(N[C@]2(C(=O)O)CC[C@]3(CC2)c2ccccc2C[C@@H]3C[C@@H](C)COc2ccnc3c2[C@H](C)CCC3)cc1Cl` [Example 709, (1r,2′S,4S)-4-(3-chloro-4-methylanilino)-2′-[(2R)-2-methyl-3-{[(5R)-5-methyl-5,6,7,8-tetrahydroquinolin-4-yl]oxy}propyl]-2′,3′-dihydrospiro[cyclohexane-1,1′-indene]-4-carboxylic acid], the pKi in assay [1] was 8.19. For the same compound, the pIC50 in assay [2] (Homo sapiens, NCI-H929, 48 h) was 6.00.
Take `C[C@@H](COc1ccnc2c1[C@H](CC(F)(F)F)CCC2)C[C@H]1Cc2ccccc2[C@]12CC[C@@](Nc1cccc(Cl)c1)(C(=O)O)CC2` [Example 695, (1r,2′S,4S)-4-(3-chloroanilino)-2′-[(2R)-2-methyl-3-{[(5S)-5-(2,2,2-trifluoroethyl)-5,6,7,8-tetrahydroquinolin-4-yl]oxy}propyl]-2′,3′-dihydrospiro[cyclohexane-1,1′-indene]-4-carboxylic acid]: in assay [1], the pKi is 7.53. In assay [2] (Homo sapiens, NCI-H929, 48 h), the pIC50 was 5.49.
Regarding `C[C@H]1Cc2c(OC[C@H](C)C[C@H]3Cc4ccccc4[C@]34CC[C@@](Nc3cccc(Cl)c3)(C(=O)O)CC4)ccnc2[C@H](O)C1` (racemic) [Example 670, (1r,2′S,4S)-4-(3-chloroanilino)-2′-[(2R)-3-{[(6RS,8SR)-8-hydroxy-6-methyl-5,6,7,8-tetrahydroquinolin-4-yl]oxy}-2-methylpropyl]-2′,3′-dihydrospiro[cyclohexane-1,1′-indene]-4-carboxylic acid], the pKi in assay [1] was 7.38. Further, the pIC50 in assay [2] (Homo sapiens, NCI-H929, 48 h) was 5.44.
For `C[C@@H](COc1ccnc2c1CCC2O)C[C@H]1Cc2ccccc2[C@]12CC[C@@](Nc1cccc(Cl)c1)(C(=O)O)CC2` (single isomer, unassigned) [Example 608], the pKi in assay [1] was 8.79. Further, in assay [2] (Homo sapiens, NCI-H929, 48 h), the pIC50 was 6.10.
On the same counts, the results for `C[C@@H](COc1ccnc2c1[C@H](C)CCC2)CC1=Cc2c(Cl)cccc2[C@]12CC[C@@](Nc1cccc(Cl)c1)(C(=O)O)CC2` [Example 739, (1r,4R)-4′-chloro-4-(3-chloroanilino)-2′-[(2R)-2-methyl-3-{[(5R)-5-methyl-5,6,7,8-tetrahydroquinolin-4-yl]oxy}propyl]spiro[cyclohexane-1,1′-indene]-4-carboxylic acid] are 8.82 and 7.06.
As for `C[C@@H](COc1ccnc2c1C1CCC2CC1)C[C@H]1Cc2ccccc2[C@]12CC[C@@](Nc1cccc(Cl)c1)(C(=O)O)CC2` [Example 648, (1r,2′S,4S)-4-(3-chloroanilino)-2′-{(2R)-2-methyl-3-[(5,6,7,8-tetrahydro-5,8-ethanoquinolin-4-yl)oxy]propyl}-2′,3′-dihydrospiro[cyclohexane-1,1′-indene]-4-carboxylic acid], the pKi in assay [1] is 7.74. Moreover, in assay [2] (Homo sapiens, NCI-H929, 48 h), the pIC50 was 6.10.
Consider `C[C@@H](COc1ccnc2c1[C@H](C)CCC2)C[C@H]1Cc2ccccc2[C@]12CC[C@@](Nc1cccc(Cl)c1F)(C(=O)O)CC2` [Example 706, (1r,2′S,4S)-4-(3-chloro-2-fluoroanilino)-2′-[(2R)-2-methyl-3-{[(5R)-5-methyl-5,6,7,8-tetrahydroquinolin-4-yl]oxy}propyl]-2′,3′-dihydrospiro[cyclohexane-1,1′-indene]-4-carboxylic acid], for which the pKi in assay [1] was 9.05. In addition, in assay [2] (Homo sapiens, NCI-H929, 48 h), the pIC50 is 7.03.
With `CC(=O)c1cc(C)c2c(c1)[C@]1(CC[C@@](Nc3cccc(Cl)c3)(C(=O)O)CC1)C(C[C@@H](C)COc1ccnc3c1[C@H](C)CCC3)=C2` [Example 756, (1r,4R)-6′-acetyl-4-(3-chloroanilino)-4′-methyl-2′-[(2R)-2-methyl-3-{[(5R)-5-methyl-5,6,7,8-tetrahydroquinolin-4-yl]oxy}propyl]spiro[cyclohexane-1,1′-indene]-4-carboxylic acid], the pKi in assay [1] was 9.00. Besides, the pIC50 in assay [2] (Homo sapiens, NCI-H929, 48 h) was 7.21.

By pKi is commonly meant −log10 of the Ki, conventionally taken in molar units.
